Structures can show the parent of a compound that is named as a salt. Where two headings read alike, the source gives them in different places.
Assay: Ocular tissue concentrations (aqueous humor, vitreous humor, iris, retina, choroid, cornea) after topical ocular, subcutaneous and intravitreal administration
Assay type: in vivo, New Zealand White rabbits
Details: for concentration at 4 h / concentration at 0.5 h / concentration at 1 hr / concentration at 2 hr / concentration at 4 hr / concentration at 0.5 hr / concentration at 2 h / concentration at 1 h / concentration at 6 hr / concentration at 24 h / concentration at 48 h / concentration at 72 h: New Zealand White, rabbit; for concentration at 6 hr / concentration at 24 h / concentration at 48 h / concentration at 72 h: other: intravitreal, 2.5 mg per eye, Group 4 intravitreal 2.5 mg per eye
Experimental: To measure the concentration of Compound 1 in plasma and ocular tissues following topical ocular, subcutaneous, and intravitreal administration, New Zealand White rabbits were administered Compound 1, and plasma and ocular samples were collected at pre-determined time points. Compound 1 formulations were prepared fresh on each day of dosing.
Ocular tissue samples from both eyes of each animal were collected and weights were recorded. Plasma and ocular tissue sample concentrations of Compound 1 were determined by LC-MS/MS.
New Zealand White rabbits weighing 2.5 to 3.5 kg were used on this study. Rabbits were housed one per cage. Animals were not fasted and only healthy animals with no ocular illness were used. Two rabbits per group were sacrificed at each of four ocular tissue sampling time points for a total of eight rabbits per group.
Animals were anesthetized for ocular (topical) and intravitreal dosing following the 12IA7 IACUC protocol. Each rabbit received a bolus dose of test formulation either via topical ocular administration 3 times daily on Days 1 and 2 (at 0, 6, and 12 hours), and once on Day 3 (at 0 hours) into both eyes; via intravitreal administration into both eyes once on Day 1 (at 0 hours); or via subcutaneous administration 2 times daily on Days 1 and 2 (at 0 and 8 hours) and once daily on Day 3 (at 0 hours). Doses were given within an approximately 1 hour window each day where applicable.
On Day 1, for intravitreal administration, or on Day 3, for topical ocular and subcutaneous administration, at the appropriate ocular tissue collection time points, animals were euthanized and both eyes were enucleated immediately. Following enucleation, each eye was rinsed with phosphate-buffered saline. Ocular tissue samples from both eyes of each animal were collected at predetermined time points and weights were recorded. All the samples were frozen immediately on dry ice, and stored at −60° C. to −80° C. pending bioanalysis.
An LC-MS/MS method was developed for the determination of Compound 1 in rabbit aqueous tissues (plasma, aqueous and vitreous humor) and solid ocular tissue samples. A pre-study standard curve was analyzed to determine the specificity, range, and lower limit of quantitation of the method. Plasma and tissue homogenate study samples were extracted and analyzed. All the samples were treated identically to the standards.
One eight-point standard curve was used in each analytical batch. To be accepted, each batch must have had at least five of eight standards with accuracy within ±20% of nominal, except at the lower limit of quantification (LLOQ), where ±25% was acceptable.
Concentration versus time data is plotted in FIGS. 3-16. All data are expressed as ng/g of the free drug. Samples that were below the limit of quantitation (0.2 ng/mL) were not used in the calculation of averages.

[1] = vitreous humor, read-out: vitreous humor Average Conc.
[2] = vitreous humor, read-out: vitreous humor Conc., individual eyes (OD, OS)

- concentration at 4 h (aqueous humor, topical, 1.2 mg/eye, Group 1 topical ocular 1.2 mg/eye, 4.0 hr, read-out: aqueous humor Average Conc.): 8.24 ng/g
- concentration at 0.5 h (choroid, topical, 1.2 mg/eye, topical ocular 1.2 mg/eye (~0.7 mg/kg/dose), read-out: Choroid tissue Average): 57.7 ng/g
- concentration at 1 hr (choroid, topical, 1.2 mg/eye, topical ocular 1.2 mg/eye (~0.7 mg/kg/dose), 1 hr, read-out: Choroid tissue Average): 32.2 ng/g
- concentration at 2 hr (choroid, topical, 1.2 mg/eye, topical ocular 1.2 mg/eye (~0.7 mg/kg/dose), 2 hr, read-out: Choroid tissue Average): 59.2 ng/g
- concentration at 4 hr (choroid, topical, 1.2 mg/eye, topical ocular 1.2 mg/eye (~0.7 mg/kg/dose), 4 hr, read-out: Choroid tissue Average): 165 ng/g
- concentration at 0.5 hr (cornea, topical, 1.2 mg/eye, topical ocular 1.2 mg/eye (~0.7 mg/kg/dose), read-out: Cornea tissue Average): 1020 ng/g
- concentration at 0.5 hr (cornea, topical, 1.2 mg/eye, topical ocular 1.2 mg/eye (~0.7 mg/kg/dose), read-out: Cornea tissue Conc., individual eyes (OD, OS)): 427 ng/g
- concentration at 1 hr (cornea, topical, 1.2 mg/eye, topical ocular 1.2 mg/eye (~0.7 mg/kg/dose), 1 hr, read-out: Cornea tissue Average): 548 ng/g
- concentration at 2 hr (cornea, topical, 1.2 mg/eye, topical ocular 1.2 mg/eye (~0.7 mg/kg/dose), 2 hr, read-out: Cornea tissue Average): 1070 ng/g
- concentration at 4 hr (cornea, topical, 1.2 mg/eye, topical ocular 1.2 mg/eye (~0.7 mg/kg/dose), 4 hr, read-out: Cornea tissue Average): 534 ng/g
- concentration at 0.5 hr (iris homogenate, topical, 1.2 mg/eye, topical ocular 1.2 mg/eye (~0.7 mg/kg/dose), read-out: Iris homogenate Conc., individual eyes (OD, OS)): 2.55 ng/mL
- concentration at 0.5 hr (iris, topical, 1.2 mg/eye, topical ocular 1.2 mg/eye (~0.7 mg/kg/dose), read-out: Iris tissue Average): 24.3 ng/g
- concentration at 0.5 hr (iris, topical, 1.2 mg/eye, topical ocular 1.2 mg/eye (~0.7 mg/kg/dose), read-out: Iris tissue Conc., individual eyes (OD, OS)): 17.8 ng/g
- concentration at 1 hr (iris, topical, 1.2 mg/eye, topical ocular 1.2 mg/eye (~0.7 mg/kg/dose), 1 hr, read-out: Iris tissue Average): 55.2 ng/g
- concentration at 2 h (iris, topical, 1.2 mg/eye, topical ocular 1.2 mg/eye (~0.7 mg/kg/dose), 2 hr, read-out: Iris tissue Average): 51.9 ng/g
- concentration at 4 h (iris, topical, 1.2 mg/eye, topical ocular 1.2 mg/eye (~0.7 mg/kg/dose), 4 hr, read-out: Iris tissue Average): 261 ng/g
- concentration at 4 h (iris, topical, 1.2 mg/eye, topical ocular 1.2 mg/eye (~0.7 mg/kg/dose), 4 hr, read-out: Iris tissue Conc., individual eyes (OD, OS)): 30.7 ng/g
- concentration at 0.5 h (retina, topical, 1.2 mg/eye, topical ocular 1.2 mg/eye (~0.7 mg/kg/dose), read-out: Retina tissue Average): 25.6 ng/g
- concentration at 1 h (retina, topical, 1.2 mg/eye, topical ocular 1.2 mg/eye (~0.7 mg/kg/dose), 1 hr, read-out: Retina tissue Average): 59.2 ng/g
- concentration at 2 h (retina, topical, 1.2 mg/eye, topical ocular 1.2 mg/eye (~0.7 mg/kg/dose), 2 hr, read-out: Retina tissue Average): 48.3 ng/g
- concentration at 4 h (retina, topical, 1.2 mg/eye, topical ocular 1.2 mg/eye (~0.7 mg/kg/dose), 4 hr, read-out: Retina tissue Average): 405 ng/g
- concentration at 6 hr [1]: 988000 ng/g
- concentration at 6 hr [2]: 592000 ng/mL
- concentration at 24 h [1]: 350000 ng/g
- concentration at 24 h [2]: 438000 ng/mL
- concentration at 48 h [1]: 82000 ng/g
- concentration at 48 h [2]: 85200 ng/mL
- concentration at 72 h [1]: 13400 ng/g
- concentration at 72 h [2]: 14500 ng/mL
- concentration at 0.5 hr (vitreous humor, subcutaneous, 5 mg/kg, Group 2 subcutaneous 5 mg/kg, read-out: vitreous humor Average Conc.): 0.83 ng/g
- concentration at 0.5 hr (vitreous humor, subcutaneous, 5 mg/kg, Group 2 subcutaneous 5 mg/kg, read-out: vitreous humor Conc., individual eyes (OD, OS)): 0.77 ng/mL
- concentration at 1 hr (vitreous humor, subcutaneous, 5 mg/kg, Group 2 subcutaneous 5 mg/kg, 1.0 hr, read-out: vitreous humor Average Conc.): 0.45 ng/g
- concentration at 0.5 h (vitreous humor, topical, 1.2 mg/eye, Group 1 topical ocular 1.2 mg/eye, read-out: vitreous humor Average Conc.): 0.61 ng/g
- concentration at 0.5 h (vitreous humor, topical, 1.2 mg/eye, Group 1 topical ocular 1.2 mg/eye, read-out: vitreous humor Conc., individual eyes (OD, OS)): 0.528 ng/mL
- concentration at 1 h (vitreous humor, topical, 1.2 mg/eye, Group 1 topical ocular 1.2 mg/eye, 1.0 hr, read-out: vitreous humor Average Conc.): 2.09 ng/g
- concentration at 2 hr (vitreous humor, topical, 1.2 mg/eye, Group 1 topical ocular 1.2 mg/eye, 2.0 hr, read-out: vitreous humor Average Conc.): 3.33 ng/g
- concentration at 2 hr (vitreous humor, topical, 1.2 mg/eye, Group 1 topical ocular 1.2 mg/eye, 2.0 hr, read-out: vitreous humor Conc., individual eyes (OD, OS)): 1.14 ng/mL
- concentration at 4 hr (vitreous humor, topical, 1.2 mg/eye, Group 1 topical ocular 1.2 mg/eye, 4.0 hr, read-out: vitreous humor Average Conc.): 4.01 ng/g
- aqueous humor concentrations (topical ocular administration, over four hours (FIG. 6)): below 50 ng/g
SMILES: COC(=O)N[C@@H](Cc1ccccc1)C(=O)N[C@@H](Cc1ccc(NS(=O)(=O)O)cc1)c1csc(-c2cccs2)n1 [Compound 1 sodium salt]

Reference: US11666558B2, “Methods of treating intraocular pressure with activators of Tie-2” (EyePoint Pharmaceuticals, Inc., priority 2015, dated 2023)
